According to PubChem BioAssay (NCI):
Values joined by “and” are separate entries in the source; they are usually repeats but may differ in a detail not shown here. Equal entries are not always repeated.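 These data come from cells grown in 96-well plates and exposed to compound for 48 hours at five concentrations. GI50 marks 50% less growth. TGI: concentration producing complete growth inhibition.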

Legend:
Test in all cases: NCI-60 cell line screen, 48 h
[1] = tested on: A498 renal
[2] = tested on: CAKI-1 renal
[3] = tested on: COLO 205 colon
[4] = tested on: DU-145 prostate
[5] = tested on: IGROV1 ovarian
[6] = tested on: K-562 leukemia
[7] = tested on: OVCAR-5 ovarian
[8] = tested on: PC-3 prostate
[9] = tested on: SF-539 CNS
[10] = tested on: T-47D breast

SMILES | TGI [1] | TGI [2] | TGI [3] | TGI [4] | TGI [5] | TGI [6] | TGI [7] | TGI [8] | TGI [9] | TGI [10] | GI50 [1] | GI50 [2] | GI50 [3] | GI50 [4] | GI50 [5] | GI50 [6] | GI50 [7] | GI50 [8] | GI50 [9] | GI50 [10]
CC1(C)C(=O)/C=C\C(=O)C(C)(C)C2=CC=C(O2)C(C)(C)C(=O)C(Br)C(Br)C(=O)C(C)(C)C2=CC=C1O2 (centres undefined) | > 100 µM | > 100 µM | > 100 µM | > 100 µM | > 85.6 µM | 45.4 µM | > 100 µM | > 100 µM | > 100 µM | > 100 µM | – | – | – | – | – | – | – | – | – | –
COc1cc2c3c(n(CCCN=[N+]=[N-])c(=O)c2cc1OC)-c1ccc([N+](=O)[O-])cc1C3=O | > 100 µM | > 100 µM | > 100 µM | > 100 µM | 35 µM | > 100 µM | > 100 µM | > 100 µM | > 100 µM | > 100 µM | 96.7 µM | > 100 µM | > 100 µM | 34.4 µM | 0.215 µM | > 100 µM | > 100 µM | > 100 µM | 38.9 µM | 50.1 µM
COc1ccc2c(n1)Sc1nc3ccccc3nc1N2 | > 100 µM | > 100 µM | > 100 µM | > 100 µM | > 100 µM | > 100 µM | > 100 µM | > 100 µM | 50.1 µM | > 100 µM | – | – | – | – | – | – | – | – | – | –
Cn1cnc([N+](=O)[O-])c1S(=O)(=O)Oc1ccc(Cl)cc1 | 42.5 µM | 3.51 µM | 2.09 µM | 17.8 µM | 5.58 µM | 10.2 µM | 39.1 µM | 49.2 µM | 21 µM | 6.3 µM | 17 µM | 1.67 µM | 0.546 µM | 4.75 µM | 2.14 µM | 2.99 µM | 15.6 µM | 17.2 µM | 7.11 µM | 2.21 µM
O=C(COc1ccccc1)NNc1ccccc1 | > 300 µM | > 80.2 µM and 182 µM | > 86.6 µM and 197 µM | > 300 µM | > 300 µM | > 300 µM | > 300 µM | > 300 µM | 55.1 µM and 37.6 µM | > 300 µM | 87.7 µM | 6.78 µM and 5.97 µM | 17.6 µM and 11.9 µM | > 300 µM | > 300 µM | 3.67 µM and 6.43 µM | 144 µM | 45.3 µM and 44.1 µM | 18.1 µM and 9.52 µM | 35.2 µM and 19 µM
CCOc1ccc(-c2nc3ccc(-c4nc5ccc(N6CCN(C)CC6)cc5[nH]4)cc3[nH]2)cc1 | 1.05 µM | 2.55 µM | 1.26 µM | 1.57 µM | 2.44 µM | – | 3.07 µM | 6.19 µM | 2 µM | 2.2 µM | 0.223 µM | 0.555 µM | 0.117 µM | 0.402 µM | 0.514 µM | 0.696 µM | 1.47 µM | 0.352 µM | 0.689 µM | 0.299 µM
COc1cccc(S(=O)(=O)NC2=NCCN2C(=S)SN2CCn3c2nsc3=S)c1 | > 100 µM | 66.2 µM | 39.6 µM | > 100 µM | 78.5 µM | 92.3 µM | 79.4 µM | > 100 µM | 70 µM | 51 µM | 68.4 µM | 32 µM | 17.8 µM | 44.2 µM | 27.2 µM | 31.4 µM | 23 µM | 36.2 µM | 27.3 µM | 23.3 µM
COc1cc2c(cc1OC)[C@@H]1C(=O)c3ccc4c(c3O[C@@H]1CO2)C[C@H](C(C)C)O4 | > 31 µM | > 47.4 µM | 20.8 µM | > 100 µM | > 85.5 µM | > 41.4 µM | > 100 µM | > 30.5 µM | > 53.4 µM | > 60.6 µM | 0.661 µM | 4.41 µM | 6.19 µM | 14.5 µM | 14.2 µM | 0.521 µM | 29.1 µM | 1.98 µM | 15 µM | 0.175 µM
COc1ccc(C2c3ccc4ccccc4c3Oc3ncn(CCCn4ccnc4)c(=N)c32)cc1OC (centres undefined) | 4.59 µM | 17.8 µM | 4.51 µM | 18.2 µM | 21.8 µM | 4.54 µM | 17.8 µM | 12.9 µM | 3.28 µM | 6.25 µM | 1.5 µM | 4.84 µM | 2.04 µM | 5.49 µM | 6.04 µM | 2.07 µM | 4.55 µM | 3.23 µM | 1.74 µM | 2.39 µM
COc1cccc(/C=N\NC(=O)c2ccncc2)c1O | > 100 µM | 17.6 µM | > 100 µM | > 100 µM | > 100 µM | > 100 µM | > 100 µM | > 100 µM | > 100 µM | > 100 µM | 51.1 µM | 1.88 µM | 4.9 µM | 5.13 µM | 6.98 µM | 13.7 µM | 12.9 µM | 8.01 µM | 6.07 µM | 3.46 µM
c1cc(OCCN2CCCC2)ccc1CNc1ccc2nc(CCC3CCCCC3)[nH]c2c1 | 2.77 µM | 3.38 µM | 3.35 µM | 12.4 µM | 6.43 µM | 2.11 µM | 6.59 µM | 5.16 µM | 3 µM | 4.9 µM | 1.15 µM | 1.79 µM | 1.7 µM | 3.43 µM | 2.12 µM | 0.414 µM | 2.19 µM | 1.93 µM | 1.51 µM | 1.81 µM
Nc1nc(-c2cccnc2)cc(-c2cc(-c3cccnc3)nc(N)n2)n1 | > 100 µM | > 100 µM | > 100 µM | > 100 µM | > 100 µM | > 100 µM | > 100 µM | > 100 µM | > 100 µM | > 100 µM | – | – | – | – | – | – | – | – | – | –
COc1cc(OC)c(C(=O)/C=C/c2ccc(C#N)cc2)c(OC)c1 | 3.95 µM | 8.78 µM | 7.38 µM | 6.27 µM | 7.75 µM | > 50 µM | 8.4 µM | 6.87 µM | 3.85 µM | 7.81 µM | 1.33 µM | 1.73 µM | 1.82 µM | 1.54 µM | 1.56 µM | 1.54 µM | 2.13 µM | 1.72 µM | 1.28 µM | 1.21 µM
